Laboratory results from PubChem BioAssay AID493111 (The Scripps Research Institute Molecular Screening Center, 2011).
Calls of active or inactive are those of the source. The rule behind the calls is not given here.

Experiments:
Experiment in all cases: LYPLA1/LYPLA2 inhibition and hydrolase selectivity, late-stage follow-up, selectivity assay for LYPLA1/LYPLA2 dual inhibitor project, biochemical, gel-based ABPP, fluorescence, proteome (AID 493111)
Conditions in all cases: fluorophosphonate-rhodamine competition, at 1.5 µM (top of the series)
ABHD11 = system: ABHD11
APEH = system: APEH
ESD = system: ESD
LYPLA1 = system: LYPLA1
LYPLA2 = system: LYPLA2

| SMILES | inhibition (ABHD11) | inhibition (APEH) | inhibition (ESD) | inhibition (LYPLA1) | inhibition (LYPLA2) |
| --- | --- | --- | --- | --- | --- |
| O=C(N1CCCCC1)n1ncc(C(O)c2ccccc2)n1 (stereo not given) | 100% | 0% (inactive) | 75% | 100% | 75% |
| O=C(N1CCOCC1)n1ncc(-c2ccc(OC(F)(F)F)cc2)n1 | 100% | 50% (inactive) | 75% (inactive) | 0% (inactive) | 0% (inactive) |
| O=C(N1CCCCC1)n1ccnn1 | 100% | 0% (inactive) | 0% (inactive) | 75% (inactive) | 0% (inactive) |
| O=C(N1CCC(C(O)(c2ccccc2)c2ccccc2)CC1)n1ncc(C(O)(c2ccccc2)c2ccccc2)n1 | 100% | 0% (inactive) | 0% (inactive) | 100% | 100% |
| O=C(N1CCOCC1)n1ncc(-c2cc(F)cc(F)c2)n1 | 100% | 100% | 75% | 50% (inactive) | 0% (inactive) |
| O=C(N1CCCCC1)n1ncc(-c2ccc(Oc3ccccc3)cc2)n1 | 100% | 0% (inactive) | 100% | 100% | 0% (inactive) |
| CC1CCN(C(=O)n2ncc(C(O)(c3ccccc3)c3ccccc3)n2)CC1 | 100% | 100% | 75% (inactive) | 100% | 100% |
| O=C(N1CCC(Cc2ccccc2)CC1)n1ncc(C(O)(c2ccccc2)c2ccccc2)n1 | 100% | 0% (inactive) | 50% (inactive) | 100% | 100% |
| CC(C)(C)C1CCN(C(=O)n2ncc(C(O)(c3ccccc3)c3ccccc3)n2)CC1 | 100% | 0% (inactive) | 50% (inactive) | 100% | 100% |
| O=C(N1CCOCC1)n1nnc2ccccc21 | 100% | 100% (inactive) | 50% (inactive) | 50% (inactive) | 0% (inactive) |
| COc1ccc2cc(-c3cnn(C(=O)N4CCCCC4)n3)ccc2c1 | 100% | 75% (inactive) | 100% | 100% (inactive) | 50% (inactive) |
| O=C(N1CCOCC1)n1ccnn1 | 100% | 0% (inactive) | 0% (inactive) | 0% (inactive) | 0% (inactive) |
| CC(C)(O)c1cnn(C(=O)N2CCC(C(C)(C)C)CC2)n1 | 100% (inactive) | 0% (inactive) | 0% (inactive) | 100% | 100% |
| O=C(N1CCCC(Cc2ccccc2)C1)n1cc(C(O)(c2ccccc2)c2ccccc2)nn1 (stereo not given) | 100% | 0% (inactive) | 50% (inactive) | 100% | 100% |
| O=C(N1CCOCC1)n1ncc(C(O)(c2ccccc2)c2ccccc2)n1 | 100% | 50% (inactive) | 50% (inactive) | 100% | 50% (inactive) |
| O=C(N1CCCCC1)n1ncc(C(O)(c2ccccc2)c2ccccc2)n1 | 100% | 50% (inactive) | 100% | 100% | 100% |
| CC(C)(C)C1CCN(C(=O)n2ncc(C3(O)CCCCC3)n2)CC1 | 100% | 0% (inactive) | 50% (inactive) | 100% | 100% |
| COC1CCN(C(=O)n2ncc(C(O)(c3ccccc3)c3ccccc3)n2)CC1 | 100% | 0% (inactive) | 100% (inactive) | 100% | 100% |
| O=C(N1CCOCC1)n1ncc(-c2ccccc2)n1 | 100% | 100% | 75% | 0% (inactive) | 0% (inactive) |
| CCC1CCCCN1C(=O)n1ncc(C(O)(c2ccccc2)c2ccccc2)n1 (stereo not given) | 100% | 50% (inactive) | 0% (inactive) | 0% (inactive) | 0% (inactive) |
